Each structure is given as a SMILES string.

The subject of this series is eardrum. The series can be described thus: Confocal microscopy of ear sections: permeation of vesicles through the eardrum into the middle and inner ear. An excerpt:
Further consideration of the various images in FIGS. 10A-11D one may observe from these confocal images of eardrum and vesicles penetration into the middle ear at different time points. To verify the permeation of the formulated vesicles through the eardrum we looked at the ear sections under confocal microscopy. […] (See FIG. 11B).
FIGS. 12A-14D relate to a series of confocal imaging at higher magnification of tympanic membrane.
FIG. 15A is showing imaging specificity of TF-RnB in red. FIG. 15B is showing imaging specificity to DAPI in blue. FIG. 15C is showing a color composite overlay of the images in FIGS. 15A and 15B.
These confocal images from inner ear show particle penetrations beyond the middle ear to inner ear. (FIG. 15C). As such, it is believed that potential applications of various embodiments of a liposomal nanoparticle may be used for inner ear drug delivery.

Take `CCN(CC)c1ccc2c(-c3ccccc3C(=O)O)c3ccc(=[N+](CC)CC)cc-3oc2c1.[Cl-]` [pure RhB, Rhodamine B]: the “penetration of tympanic membrane layers (confocal imaging at higher magnification)” value (6 hours, FIGS. 12D and 14D) was “stays on the surface of tympanic membrane without any penetration”. For the same molecule, the “penetration through eardrum into middle ear (confocal fluorescence)” value (6 h post-treatment) is “did not observe any fluorescent”.

These data come from patent US20230285294A1, “METHOD AND SYSTEM FOR OTOTOPICAL DELIVERY USING NANOPARTICLES FOR EAR INFECTION DIAGNOSIS AND TREATMENT” (THE BOARD OF TRUSTEES OF THE LELAND STANFORD JUNIOR …, priority 2020, published 2023).
